Assay results taken from patent publication US8188070B2, “Method of treating neurological diseases and disorders” (The Trustees of the University of Pennsylvania, priority 2002, dated 2012).

How the values were obtained:
S5 cells [1] = assay: High throughput screen: ATP level (viable cells) in S5 cells with reduced SMN; assay type: cell-based, chicken; details: for EC50 / Emax: Gallus gallus, S5 cells, 18 ng/ml tet, 0.5 to 20 μM; for EC50: ATP level, read-out: EC50 (effective concentration for half maximum activity); for Emax: percentage increase of ATP level relative to cells treated with DMSO only, read-out: Maximum Activity (%)
Protocol: In the SMN conditional knockout cell line, S5, the endogenous smn gene is disrupted by homologous recombination, and the SMN protein is stably expressed from an SMN cDNA under the control of a tetracycline (tet)-repressible promoter (Wang and Dreyfuss (2001) supra).
Libraries of compounds were screened against the S5 cell line. […] The cells were incubated for an additional 72 hours and the number of viable cells in each well was determined by measuring the ATP level in the cell lysate, a sensitive assay commonly used to assess cell viability in HTS (Crouch, et al. (1993) J. Immunol. Methods 160:81-88). […] Activity of the compounds was measured as the difference between the sample and the average of the controls.
(§1) The activities of all compounds were further examined at concentrations ranging from 0.5 to 20 μM. […] The activity of each compound was determined as a percentage increase of the ATP level, reflecting the number of viable cells, relative to cells treated with an equal volume of DMSO only.
The chicken pre-B cell line DT40, the smn conditional knockout cell line S5 and the asf/sf2 conditional knockout cell line ASF-DT40 (Wang, et al. (1996) supra) were maintained using known methods (Wang and Dreyfuss (2001) supra). To reduce the SMN level, S5 cells were incubated with 18 ng/ml tetracycline hydrochloride (tet). Similarly, ASF-DT40 cells were treated with 14 ng/ml tet to partially deplete the ASF/SF2 protein.
After being incubated in medium containing 18 ng/ml tet for 24 hours, S5 cells were dispensed into 96-well plates at 120 μl per well. Compounds were added to these cells by pipetting 0.4 μl of the 3 mM libraries into each well to reach a final concentration of 10 μM. The 96-well plates were further incubated for 72 hours at 37° C. with 5% CO2. […] Luminescence was read on a Wallac Victor2 multi-channel plate reader (Perkin-Elmer, Boston, Mass.). The cellular ATP level is a direct measure of the number of viable cells in each well (Crouch, et al. (1993) supra). Data from luminescence readings were analyzed with MICROSOFT® Excel.

S5 cells [2] = details: for highest concentration at which there is no apparent cell toxicity: S5 cells
Protocol: as §1
SMN protein levels were also determined. Total cell lysates from treated cells were prepared and analyzed by immunoblotting with an anti-SMN antibody. […] The same blots were probed with antibodies against two other abundant proteins, Y14^10 and β-tubulin, to provide an internal control for the amount of cell lysate loaded on the gel.

S5 cells [3] = assay: Cell number determination in S5 cells cultured with 18 ng/ml tet; assay type: cell-based, chicken; details: after 96 hours
Protocol: To determine an accurate measure of the number of viable cells, cell numbers were also determined.

[4] = high-throughput screening system

Clc1ccc(C(c2ccc(Cl)cc2)n2cc[n+](CC(OCc3ccc(Cl)cc3Cl)c3ccc(Cl)cc3Cl)c2)cc1 (centres unmarked) [Calmidazolium, reference compound]
concentration improving growth of S5 cells (as low as) (S5 cells [1]; [4]): 215 nM
growth of S5 cells (S5 cells [1]; [4]): improved the growth of S5 cells

CN(C)CCC=C1c2ccccc2CCc2ccccc21 [Compound 1]
EC50 (S5 cells [1]): 3000 nM
Emax (S5 cells [1]): 30%

CNCCCN1c2ccccc2CCc2ccccc21 [Compound 2]
EC50 (S5 cells [1]): 3000 nM
Emax (S5 cells [1]): 30%

CN(C)CC/C=C1/c2ccccc2COc2ccccc21 [Compound 3]
EC50 (S5 cells [1]): 5000 nM
Emax (S5 cells [1]): 60%

CN(C)CCCN1c2ccccc2CCc2ccccc21 [Compound 4]
EC50 (S5 cells [1]): 4000 nM
Emax (S5 cells [1]): 35%

CN1CCN2c3ccccc3Cc3ccccc3C2C1 (centres unmarked) [Compound 5]
EC50 (S5 cells [1]): 5000 nM
Emax (S5 cells [1]): 75%
cell toxicity (S5 cells [2]): low cell toxicity

CC(CN(C)C)CN1c2ccccc2CCc2ccccc21 (centres unmarked) [Compound 6]
EC50 (S5 cells [1]): 2500 nM
Emax (S5 cells [1]): 50%

CN(C)CCC=C1c2ccccc2C=Cc2ccccc21 [Compound 7]
EC50 (S5 cells [1]): 3000 nM
Emax (S5 cells [1]): 45%

CSc1ccc2c(c1)C(N1CCN(C)CC1)Cc1ccccc1S2 (centres unmarked) [Compound 8]
EC50 (S5 cells [1]): < 1000 nM
Emax (S5 cells [1]): 25%

CN(C)CCCN1c2ccccc2CCc2ccc(Cl)cc21 [Compound 9]
EC50 (S5 cells [1]): 1500 nM
Emax (S5 cells [1]): 50%

CN1CCN(C2=Nc3cc(Cl)ccc3Nc3ccccc32)CC1 [Compound 10]
EC50 (S5 cells [1]): 3000 nM
Emax (S5 cells [1]): 30%

CN(C)CCCN1c2ccccc2Sc2ccccc21 [Compound 11]
EC50 (S5 cells [1]): 2500 nM
Emax (S5 cells [1]): 60%

CC(CN1c2ccccc2Sc2ccccc21)N(C)C (centres unmarked) [Compound 12]
increase in cell number over control cells treated with DMSO alone (S5 cells [3]): three to four-fold increase in cell number
EC50 (S5 cells [1]): 2500 nM
Emax (S5 cells [1]): 75%

CC(CN(C)C)CN1c2ccccc2Sc2ccccc21 (centres unmarked) [Compound 14]
EC50 (S5 cells [1]): 2500 nM
Emax (S5 cells [1]): 40%

CCN(CC)C(C)CN1c2ccccc2Sc2ccccc21 (centres unmarked) [Compound 15]
EC50 (S5 cells [1]): 2000 nM
Emax (S5 cells [1]): 70%

CCC(=O)c1ccc2c(c1)N(CC(C)N(C)C)c1ccccc1S2 (centres unmarked) [Compound 16]
EC50 (S5 cells [1]): 1000 nM
Emax (S5 cells [1]): 60%
highest concentration at which there is no apparent cell toxicity (S5 cells [2]): 4 µM

CSc1ccc2c(c1)N(CCC1CCCCN1C)c1ccccc1S2 (centres unmarked) [Compound 17]
increase in cell number over control cells treated with DMSO alone (S5 cells [3]): three to four-fold increase in cell number
EC50 (S5 cells [1]): 1500 nM
Emax (S5 cells [1]): 80%
highest concentration at which there is no apparent cell toxicity (S5 cells [2]): 4 µM

CN(C)CCCN1c2ccccc2Sc2ccc(C(F)(F)F)cc21 [Compound 18]
EC50 (S5 cells [1]): 1500 nM
Emax (S5 cells [1]): 25%

CN(C)CC/C=C1\c2ccccc2Sc2ccc(Cl)cc21 [Compound 19]
EC50 (S5 cells [1]): 2000 nM
Emax (S5 cells [1]): 30%

CN(C)CCCN1c2ccccc2Sc2ccc(Cl)cc21 [Compound 20]
EC50 (S5 cells [1]): 1000 nM
Emax (S5 cells [1]): 35%
highest concentration at which there is no apparent cell toxicity (S5 cells [2]): 4 µM

CN1CCC(OC(c2ccccc2)c2ccccc2)CC1 [Compound 21]
Emax (S5 cells [1]): 55%

O=C(CCCN1CC=C(n2c(=O)[nH]c3ccccc32)CC1)c1ccc(F)cc1 [Compound 22]
Emax (S5 cells [1]): 50%

CCN1CCCC(OC(=O)C(c2ccccc2)c2ccccc2)C1 (centres unmarked) [Compound 23]
Emax (S5 cells [1]): 50%

CN1Cc2c(N)cccc2C(c2ccccc2)C1 (centres unmarked) [Compound 24]
Emax (S5 cells [1]): 35%

COC(=O)[C@H](c1ccccc1Cl)N1CCc2sccc2C1 [Compound 25]
EC50 (S5 cells [1]): 7000 nM
Emax (S5 cells [1]): 100%

Cc1nc2sccn2c(=O)c1CCN1CCC(=C(c2ccc(F)cc2)c2ccc(F)cc2)CC1 [Compound 27]
Emax (S5 cells [1]): 80%

O=C(CCCN1CCC2(CC1)C(=O)NCN2c1ccccc1)c1ccc(F)cc1 [Compound 29]
Emax (S5 cells [1]): 140%

COc1ccc(S(=O)(=O)Nc2ccccc2CN(C)CC=Cc2ccc(Cl)cc2)cc1 [KN-92, 2-[N-(4-Methoxybenzenesulfonyl)] amino-N-(4-chlorocinnamyl)-N-methylbenzylamine, reference compound]
growth of S5 cells (S5 cells [1]; [4]): did not affect the growth of S5 cells

COc1ccc(S(=O)(=O)N(CCO)c2ccccc2CN(C)CC=Cc2ccc(Cl)cc2)cc1 [KN-93, reference compound]
growth of S5 cells (S5 cells [1]; [4]): improved the growth of S5 cells
